# Laboratory results reported in ChEMBL document CHEMBL1201862, “PubChem BioAssay data set” (2004).
# Activity calls are given as the source filed them.
# Assays:
# [1] = target: T1, Heat shock factor protein 1 (Mus musculus, UniProt P38532); test: inhibition of MG132-induced HSE-luciferase signal, confirmation, cell-based, NIH3T3, luminescence, dose retest (AID 2382); assay type: functional;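 note: NIH3T3 fibroblasts with HSF1-driven luciferase reporter stressed by proteasome inhibitor MG132; luminescence from HSF1-driven luciferase expression after 8 hours of MG132 stress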
# T1 sequence (P38532 whole entry): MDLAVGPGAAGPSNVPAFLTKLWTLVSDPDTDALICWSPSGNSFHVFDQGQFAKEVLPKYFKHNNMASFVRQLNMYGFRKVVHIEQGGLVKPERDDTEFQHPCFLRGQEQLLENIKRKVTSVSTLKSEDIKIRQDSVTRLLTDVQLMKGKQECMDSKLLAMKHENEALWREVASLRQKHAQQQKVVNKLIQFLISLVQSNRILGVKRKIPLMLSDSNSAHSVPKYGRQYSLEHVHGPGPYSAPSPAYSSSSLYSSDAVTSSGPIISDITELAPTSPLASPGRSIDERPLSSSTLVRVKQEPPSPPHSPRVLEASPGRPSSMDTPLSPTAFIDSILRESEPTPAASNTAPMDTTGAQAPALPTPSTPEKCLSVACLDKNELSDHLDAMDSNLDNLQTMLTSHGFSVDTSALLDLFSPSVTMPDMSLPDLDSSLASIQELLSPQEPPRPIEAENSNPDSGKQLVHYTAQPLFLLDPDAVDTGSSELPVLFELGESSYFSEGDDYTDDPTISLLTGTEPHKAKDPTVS
# [2] = inhibitors of firefly luciferase expression or activity, dose response, H4 neuroglioma cells, luminescence (AID 1990); assay type: functional, cell-based
# [3] = Luminescence Cell-Based Dose Response HTS to Identify Inhibitors of 5'UTR Stem-Loop Driven Prion Protein mRNA Translation in H4 Neuroglioblastoma Cells. [Related pubchem assays: 1827 (Project Summary), 1813 (Primary HTS)]; assay type: functional
# [4] = inhibitors of SNCA 5'UTR-driven reporter translation, confirmation, H4 neuroglioma cells, luminescence (AID 1988); assay type: functional, cell-based
# [5] = target: T2, Replicative DNA helicase DnaB (Mycobacterium tuberculosis, UniProt P9WMR3); test: DnaB intein splicing inhibitors, dose response, biochemical, cell-free fluorescence (AID 449749); assay type: functional
# T2 sequence (P9WMR3 whole entry): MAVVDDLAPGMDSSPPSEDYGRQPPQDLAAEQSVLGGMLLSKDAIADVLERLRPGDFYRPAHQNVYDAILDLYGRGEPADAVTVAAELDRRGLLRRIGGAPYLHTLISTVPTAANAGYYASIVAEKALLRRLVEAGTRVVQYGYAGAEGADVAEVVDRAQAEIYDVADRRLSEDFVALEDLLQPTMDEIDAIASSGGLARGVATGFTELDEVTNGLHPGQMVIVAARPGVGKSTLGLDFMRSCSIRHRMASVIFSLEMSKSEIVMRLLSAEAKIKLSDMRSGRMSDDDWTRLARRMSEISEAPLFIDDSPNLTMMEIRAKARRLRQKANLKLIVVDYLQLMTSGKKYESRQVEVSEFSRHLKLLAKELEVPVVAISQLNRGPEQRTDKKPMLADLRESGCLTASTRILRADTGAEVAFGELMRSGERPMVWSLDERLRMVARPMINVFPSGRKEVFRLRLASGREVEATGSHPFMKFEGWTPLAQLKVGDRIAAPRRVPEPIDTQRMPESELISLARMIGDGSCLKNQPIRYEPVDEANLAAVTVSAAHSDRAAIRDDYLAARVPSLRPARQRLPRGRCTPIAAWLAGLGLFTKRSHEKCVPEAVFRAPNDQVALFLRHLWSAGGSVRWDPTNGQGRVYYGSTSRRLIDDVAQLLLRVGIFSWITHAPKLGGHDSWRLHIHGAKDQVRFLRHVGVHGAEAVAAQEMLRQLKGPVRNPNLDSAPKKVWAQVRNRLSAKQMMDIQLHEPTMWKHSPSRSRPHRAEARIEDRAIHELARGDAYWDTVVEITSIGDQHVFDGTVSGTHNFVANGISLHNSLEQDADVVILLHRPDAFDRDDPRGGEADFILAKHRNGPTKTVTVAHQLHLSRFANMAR
# Protein RecA = target: T3, Protein RecA (Mycobacterium tuberculosis, UniProt P9WHJ3); test: Fluorescence Cell-Free Homogeneous Dose Retest to Identify Inhibitors of RecA-Intein Splicing Activity. [Related pubchem assays (depositor defined):AID2097, AID2223, AID489010, AID492950]; assay type: functional
# T3 sequence (P9WHJ3 whole entry): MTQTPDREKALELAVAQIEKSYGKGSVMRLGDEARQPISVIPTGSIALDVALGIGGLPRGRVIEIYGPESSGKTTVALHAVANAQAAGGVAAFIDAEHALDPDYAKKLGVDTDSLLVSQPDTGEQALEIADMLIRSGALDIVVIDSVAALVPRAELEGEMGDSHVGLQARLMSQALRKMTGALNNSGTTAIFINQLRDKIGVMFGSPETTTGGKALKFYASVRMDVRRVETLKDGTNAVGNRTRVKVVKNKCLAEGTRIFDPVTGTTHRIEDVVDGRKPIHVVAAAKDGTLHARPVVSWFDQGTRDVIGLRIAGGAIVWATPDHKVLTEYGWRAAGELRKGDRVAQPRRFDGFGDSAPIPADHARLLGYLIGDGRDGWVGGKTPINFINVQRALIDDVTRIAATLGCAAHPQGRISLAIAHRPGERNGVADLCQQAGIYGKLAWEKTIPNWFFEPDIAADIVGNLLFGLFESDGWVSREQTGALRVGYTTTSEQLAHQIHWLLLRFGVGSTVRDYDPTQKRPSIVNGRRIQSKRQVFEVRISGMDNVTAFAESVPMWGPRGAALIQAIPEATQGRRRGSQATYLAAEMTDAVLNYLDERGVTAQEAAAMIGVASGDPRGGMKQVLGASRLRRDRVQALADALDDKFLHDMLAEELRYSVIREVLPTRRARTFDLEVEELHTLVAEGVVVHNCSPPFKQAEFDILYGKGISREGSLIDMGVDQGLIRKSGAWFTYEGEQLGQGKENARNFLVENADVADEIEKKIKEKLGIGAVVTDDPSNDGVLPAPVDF
# [6] = growth suppression of PTEN-null colon cells, dose response, cell-based, HCT116 PTEN knockout (AID 1047); assay type: functional;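 note: HCT116 colon tumor cells with PTEN knocked out; cells exposed to compound for 60 hours before readout; potency for loss of cell viability measured by luminescence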
# [7] = growth suppression of beta-catenin-knockout colon cells, dose response, cell-based, HCT116, human colon tumor (AID 1045); assay type: functional;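 note: HCT116 colon tumor cells with beta catenin knocked out; cells exposed to compound for 60 hours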
# Cytochrome P450 2D6 = Cytochrome P450 2D6 (Homo sapiens, UniProt P10635);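 note: CYP2D6 member of a cytochrome P450 panel assay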
# [8] = Luminescence Cell-Based Dose Retest to Confirm Inhibitors of Cancer Stem Cells. [Related pubchem assays (depositor defined):AID2717, AID2721]; assay type: functional; details: Homo sapiens
# Paired box protein Pax-8 = Paired box protein Pax-8 (Homo sapiens, UniProt Q06710); test: inhibitors of PAX8-driven TPO luciferase reporter, dose response, RMG-I cells, cherry-pick (AID 687027); assay type: functional, cell-based;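 note: luciferase reporter driven by Pax8 target thyroperoxidase promoter measured by SteadyGlo luminescence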
# [9] = inhibitors of intracellular T. cruzi replication, confirmation, NIH3T3 host cells, beta-gal luminescence (AID 2044); assay type: functional, cell-based;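 note: intracellular parasites grown in NIH/3T3 mouse fibroblasts as host cells; luminescent beta-galactosidase reporter signal from transgenic T. cruzi replicating inside host cells; inhibitors lower the luminescence signal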
# [10] = cytotoxicity toward NIH3T3 fibroblasts, dose response, counter-screen, cell-based, ATP luminescence, mouse fibroblasts (AID 2010); assay type: functional;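 note: cells exposed to compound for about 90 hours before reading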
# [11] = HEp-2 cell cytotoxicity, dose response, cytotoxicity control for RSV inhibitor project, HTS (AID 2410); assay type: functional; details: human respiratory syncytial virus
# Cytochrome P450 2C9 = Cytochrome P450 2C9 (Homo sapiens, UniProt P11712)
# Cytochrome P450 2C9, sequence (P11712 whole entry): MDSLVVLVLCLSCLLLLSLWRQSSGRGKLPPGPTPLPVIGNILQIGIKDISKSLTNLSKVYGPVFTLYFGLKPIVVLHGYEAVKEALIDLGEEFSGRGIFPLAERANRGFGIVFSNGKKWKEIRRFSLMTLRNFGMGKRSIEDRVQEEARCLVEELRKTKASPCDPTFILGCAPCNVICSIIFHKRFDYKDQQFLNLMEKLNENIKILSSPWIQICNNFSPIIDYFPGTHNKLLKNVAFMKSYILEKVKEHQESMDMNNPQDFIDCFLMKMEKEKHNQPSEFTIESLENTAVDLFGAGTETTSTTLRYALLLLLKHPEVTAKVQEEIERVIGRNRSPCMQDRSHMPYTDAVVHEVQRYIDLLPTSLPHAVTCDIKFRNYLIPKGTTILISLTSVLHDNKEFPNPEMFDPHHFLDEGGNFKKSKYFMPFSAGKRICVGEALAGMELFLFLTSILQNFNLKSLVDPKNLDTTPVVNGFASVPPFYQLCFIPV
# Paired box protein Pax-8, sequence (Q06710 whole entry): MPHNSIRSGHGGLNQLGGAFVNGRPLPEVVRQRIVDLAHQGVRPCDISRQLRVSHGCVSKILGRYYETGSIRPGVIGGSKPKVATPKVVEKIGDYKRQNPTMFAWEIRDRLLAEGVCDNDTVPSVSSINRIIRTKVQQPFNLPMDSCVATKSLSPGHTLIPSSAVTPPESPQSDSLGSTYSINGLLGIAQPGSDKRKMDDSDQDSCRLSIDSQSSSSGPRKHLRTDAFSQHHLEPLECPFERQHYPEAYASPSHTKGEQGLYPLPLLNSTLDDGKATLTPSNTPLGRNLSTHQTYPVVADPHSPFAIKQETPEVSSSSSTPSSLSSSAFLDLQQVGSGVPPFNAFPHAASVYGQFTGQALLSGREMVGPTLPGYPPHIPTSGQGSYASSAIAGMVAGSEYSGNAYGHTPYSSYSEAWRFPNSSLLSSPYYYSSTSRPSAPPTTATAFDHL
# Cytochrome P450 2D6, sequence (P10635 whole entry): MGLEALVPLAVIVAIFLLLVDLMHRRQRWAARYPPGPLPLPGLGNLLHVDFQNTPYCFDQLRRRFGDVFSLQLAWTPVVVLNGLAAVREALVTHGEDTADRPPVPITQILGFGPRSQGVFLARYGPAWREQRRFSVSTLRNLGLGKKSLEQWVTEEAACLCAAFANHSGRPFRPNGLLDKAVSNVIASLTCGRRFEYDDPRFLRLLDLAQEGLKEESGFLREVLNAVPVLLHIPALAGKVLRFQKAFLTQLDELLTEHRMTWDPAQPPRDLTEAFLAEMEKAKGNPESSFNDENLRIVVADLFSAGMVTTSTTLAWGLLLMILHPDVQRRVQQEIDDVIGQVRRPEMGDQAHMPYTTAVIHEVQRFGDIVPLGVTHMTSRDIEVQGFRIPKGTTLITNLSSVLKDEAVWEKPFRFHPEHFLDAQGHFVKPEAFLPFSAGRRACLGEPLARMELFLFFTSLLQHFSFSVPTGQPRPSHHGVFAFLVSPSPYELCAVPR
smiles,measurement,setting,value
Nn1c(SCc2ccccc2)nnc1-c1ccco1,EC50,[1],> 195 µM (not active)
CCc1ccc(C(=O)NC(CCSC)C(=O)OC)cc1 (stereo not drawn),EC50,[1],> 195 µM (not active)
Cc1cc(-n2c(SCC(=O)NCc3cccs3)nc3nnc(C)c-3c2N)ccc1Cl,EC50,[2],14.4 µM (active)
same,EC50,[3],> 120 µM (not active)
same,EC50,[4],15.3 µM (active)
CCN1C(=O)/C(=C/Nc2ccccc2)OC1=S,EC50,[1],> 195 µM (not active)
CCOc1ccccc1CNC(=O)CCn1ccc2cc(S(=O)(=O)N3CCCCC3)ccc21,EC50,[1],> 195 µM (not active)
COCCCn1c(-c2ccco2)nc2ccccc2c1=O,EC50,[1],> 195 µM (not active)
CCOc1ccccc1OCCOCCOc1c(Cl)cccc1Cl,EC50,[1],> 195 µM (not active)
COCc1n[nH]c2c1C(c1ccc(OC)c(OC)c1)C(C#N)=C(N)O2 (stereo not drawn),AC50,[5],9.47 µM (active)
same,EC50,Protein RecA,6.25 µM (active)
COc1ccc(-c2cc(C(F)(F)F)nc(N3CCN(C)CC3)n2)cc1OC,EC50,[6],29.2 µM (active)
same,EC50,[7],30.2 µM (active)
same,AC50,Cytochrome P450 2D6,28.2 µM (inconclusive)
NS(=O)(=O)c1ccc(NN=C2C(=O)NC(=S)NC2=O)cc1,AC50,[5],51.7 µM (active)
same,EC50,Protein RecA,15.5 µM (active)
CC(=O)Nc1ccc(NC(=O)CSc2ncc(C(=O)Nc3ccccc3)c(=O)n2C)cc1,AC50,[8],5.28 µM (active)
same,AC50,[5],0.131 µM (active)
same,EC50,Protein RecA,0.043 µM (active)
O=C(CCc1ccc(S(=O)(=O)NCc2ccccc2)cc1)NCc1ccco1,AC50,Paired box protein Pax-8,47.9 µM (active)
CCOc1ccc(CNC(c2ccccc2)c2ccccc2)cc1,EC50,[1],> 195 µM (not active)
O=C1/C(=C/c2ccc(F)cc2)SC(=S)N1CC(=O)N1CCCCC1c1cccnc1 (stereo not drawn),AC50,[5],13.1 µM (active)
same,EC50,Protein RecA,30.3 µM (active)
CC(=O)c1sc(NC(=O)CCS(=O)(=O)c2ccc(Cl)cc2)nc1C,AC50,Paired box protein Pax-8,5.01 µM (active)
O=C(Nc1ccc2c(c1)OCCO2)c1cccc2nc3ccccc3nc12,EC50,[9],2.09 µM (active)
same,EC50,[6],93.9 µM (active)
same,EC50,[10],> 60 µM (not active)
same,EC50,[7],47 µM (active)
same,AC50,[8],2.59 µM (active)
same,AC50,Cytochrome P450 2D6,8.91 µM (inconclusive)
Cc1nn(Cc2ccccc2)c2c1C(c1ccncc1)C(C#N)=C(N)O2 (stereo not drawn),AC50,[5],11.1 µM (active)
same,EC50,Protein RecA,3.43 µM (active)
CCC(=O)Oc1ccc2c(C)cc(=O)oc2c1C(=O)c1ccccc1,AC50,Paired box protein Pax-8,42.4 µM (active)
Cc1ccc(NC(=O)COC(=O)Cn2cnc3ccccc32)cc1S(=O)(=O)N(C)C,EC50,[1],> 195 µM (not active)
Cc1c(C(=O)Nc2ccncc2)sc2nc(-c3ccc(F)cc3)cn12,CC50,[11],5.09 µM (active)
same,EC50,[6],27.9 µM (active)
same,EC50,[7],29.3 µM (active)
O=C(Nc1cccc(Cl)c1Cl)c1snnc1-c1ccccc1,EC50,[1],> 195 µM (not active)
same,AC50,Cytochrome P450 2C9,3.16 µM (inconclusive)
N#CC1=C(N)Oc2[nH]nc(CSc3ccccc3)c2C12C(=O)Nc1ccccc12 (stereo not drawn),EC50,[1],> 195 µM (not active)
CCOc1ccc(NC(=O)C(c2ccccn2)N(C(=O)CCl)c2ccc(F)cc2)cc1 (stereo not drawn),AC50,[5],7.1 µM (active)
same,EC50,Protein RecA,2.67 µM (active)
CC1(C)CC2CC(C)(CN2C(=O)CCCN2C(=O)c3ccccc3C2=O)C1 (stereo not drawn),EC50,[1],> 195 µM (not active)
O=C(Cn1cnc2c(oc3nc4c(cc32)CCCC4)c1=O)Nc1cccc(Cl)c1,EC50,[2],13 µM (active)
same,EC50,[3],> 120 µM (not active)
same,EC50,[4],10.2 µM (active)
CCOc1ccc(S(=O)(=O)N2CCCC(C(=O)NCc3cccnc3)C2)cc1C (stereo not drawn),EC50,[2],14.2 µM (active)
same,EC50,[3],65.6 µM (active)
same,EC50,[4],19.3 µM (active)
C[C@H]1CN([C@@H](C)CO)C(=O)Cc2cc(NC(=O)Nc3ccc4c(c3)OCO4)ccc2O[C@@H]1CN(C)Cc1ccc(-c2ccccc2)cc1,AC50,Paired box protein Pax-8,5.45 µM (active)
COC(=O)[C@H]1[C@@H](O)[C@@]2(O)c3c(OC)cc(OC)cc3O[C@@]2(c2ccc(OC)cc2)[C@@H]1c1ccc(F)cc1,AC50,Paired box protein Pax-8,0.465 µM (active)
CCOC(=O)c1ccc(NC(=S)NC(=O)C2CCCC2)cc1,EC50,[1],> 195 µM (not active)
CC(NC(=O)C12CC3CC(CC(C3)C1)C2)C(=O)N/N=C/C1=C(N2CCOCC2)C(=C\c2ccccc2)/CC1 (stereo not drawn),EC50,[2],15.7 µM (active)
same,EC50,[3],> 120 µM (not active)
same,EC50,[4],16.4 µM (active)
CCN(CC)c1ccc(/C=N/n2c(S)nnc2-c2ccccc2Br)cc1,EC50,[2],> 120 µM (not active)
same,EC50,[3],> 120 µM (not active)
same,EC50,[4],> 120 µM (not active)
COc1cc(/C=N/NC(=O)CC2(C)OCCCO2)ccc1OCc1ccccc1,AC50,[5],2.64 µM (active)
same,EC50,Protein RecA,0.81 µM (active)
CCNc1ccc(C(=O)N/N=C/c2c(C)nn(-c3ccccc3)c2N2CCCC2)cc1[N+](=O)[O-],EC50,[2],18.5 µM (active)
same,EC50,[3],12.7 µM (active)
same,EC50,[4],30.6 µM (active)
